Results: patent US20110053901A1, “ACETYL MIMIC COMPOUNDS FOR THE INHIBITION OF ISOPRENYL-S-CYSTEINYL METHYLTRANSFERASE” (SIGNUM BIOSCIENCES, INC., priority 2008, published 2011)

Tests used:
[1] = tested on: TPA-treated ears of mice; assay: Mouse ear model of TPA-induced contact inflammation: edema inhibition (ear thickness); type: in vivo; settings: topical on TPA-treated mouse ear, 24 hours; for inhibition in vivo at 0.2 mg: dose 0.2 mg/20 μL; for inhibition in vivo at 0.8 mg: dose 0.8 mg/20 μL
Excerpt: (§1) G. et al., Anti-inflammatory Drugs, Clin. Pharmacol. Ther. 16, 900-4 (1974); Young et al., Tachyphylaxis in 12-Otetradecanoylphorbolacetate-and Arachidonic Acid-Induced Ear Edema; J. Invest. Dermatol. 80:48-52, (1983); Tramposch et al., In Vivo Models of Inflammation, (Morgan D W, Marshall L A eds), Birkha{umlaut over ( )}user Verlag: Basel, pp 179-204, 1999; and Gordon et al., Topical N-Acetyl-S-Farnesyl-L-Cysteine Inhibits Mouse Skin Inflammation, and Unlike Dexamethasone, Its Effects Are Restricted to the Application Site, J. Invest. Dermatol., 128(3):643-54, 2008 March)]. Moreover, the mouse ear model has been used by various groups to identify and compare members of differing classes of anti-inflammatory agents with multiple mechanisms of action (reviewed in Tramposch et al., 1999, supra).
The protocol for inducing in vivo acute contact inflammation on the ears of live mice has been described elsewhere (reviewed in Tramposch, 1999, supra). In brief, mice were sedated and their ears were treated with 1.2 μg/20 uL TPA (i.e., tetradecanoylphorbol-13-acetate). […] After 24 hours, the mice were sacrificed and edema was measured by taking micrometer readings of each ear. The percent inhibition of edema was determined by taking the average ear thickness of compound-treated ears and dividing it by the average thickness of 12 ears that only received TPA and subtracting that value from 100%. These values were corrected for the thickness of normal, non TPA-treated mouse ears of littermate controls. […] ED50 values were calculated as described in Gordon et al., “Topical N-acetyl-S-farnesyl-L-cysteine Inhibits Mouse Skin Inflammation, and Unlike Dexamethasone, its Effects Are Restricted to the Application Site”, J. Invest. Derm., Vol. 128 pp. 643-654 (2008).

[2] = tested on: myeloperoxidase (MPO), neutrophil marker in TPA-treated ears; assay: Mouse ear model of TPA-induced contact inflammation: MPO inhibition (dermal neutrophil infiltration); type: in vivo; settings: topical on TPA-treated mouse ear, 6 mm biopsy punches; for inhibition in vivo at 0.2 mg: dose 0.2 mg/20 μL; for inhibition in vivo at 0.8 mg: dose 0.8 mg/20 μL
Excerpt: as §1
To assay for inhibition of dermal neutrophil infiltration by S-isoprenyl and S-farnesyl cysteine compounds, a standard method was used (see Bradley et al., 1982, supra; Young et al., 1983, supra; De Young et al, “Edema and Cell Infiltration in the Phorbol Ester-treated Mouse Ear are Temporally Separate and can be Differentially Modulated by Pharmacologic Agents”, Agents Actions, 26(3-4): 335-41 (March 1989); and Rao et al. (1993) Comparative Evaluation of Arachidonic Acid (AA)-and Tetradecanoylphorbol Acetate (TPA)-Induced Dermal Inflammation, Inflammation 17:723-41). Briefly, we homogenized 6 mm biopsy punches taken from both compound-treated ears as well as TPA-treated and non-treated control groups. We quantitated the levels of MPO by a colorimetric reaction that was measured spectrophotometrically. The percent inhibition of neutrophil infiltration by each S-isoprenyl and S-farnesyl cysteine compound was determined by comparing the average MPO levels in the presence and absence of these compounds. The calculation for percent inhibition of MPO was determined similar to that as described for calculating the percent edema inhibition, see the Edema Inhibition protocol, supra. […] Gordon et al., “Topical N-acetyl-S-farnesyl-L-cysteine Inhibits Mouse Skin Inflammation, and Unlike Dexamethasone, its Effects Are Restricted to the Application Site”, J. Invest. Derm., Vol. 128 pp. 643-654 (2008).

[3] = tested on: TPA-treated ears of mice; assay: Mouse ear model of TPA-induced contact inflammation: erythema inhibition (Δa* redness, chroma meter); type: in vivo; settings: dose 0.2 mg/20 μL, topical on TPA-treated mouse ear, 24 hours post treatment
Excerpt: as §1
Another well documented biomarker of skin inflammation is skin redness, termed erythema, which is caused by capillary congestion and dilation in response to various chemical and environmental insults (see Denig, N. I. et al., Irritant Contact Dermatitis. Clues to Causes, Clinical Characteristics, and Control, Postgrad Med., May (1998); 103(5):199-200, 207-8, 212-3). […]

[4] = biological target: membrane-associated isoprenyl-S-cysteinyl methyltransferase (Homo sapiens, UniProt O60725); settings: cited from earlier work
[5] = tested on: dermal inflammation; settings: mice; cited from earlier work

membrane-associated isoprenyl-S-cysteinyl methyltransferase, sequence (O60725 whole entry): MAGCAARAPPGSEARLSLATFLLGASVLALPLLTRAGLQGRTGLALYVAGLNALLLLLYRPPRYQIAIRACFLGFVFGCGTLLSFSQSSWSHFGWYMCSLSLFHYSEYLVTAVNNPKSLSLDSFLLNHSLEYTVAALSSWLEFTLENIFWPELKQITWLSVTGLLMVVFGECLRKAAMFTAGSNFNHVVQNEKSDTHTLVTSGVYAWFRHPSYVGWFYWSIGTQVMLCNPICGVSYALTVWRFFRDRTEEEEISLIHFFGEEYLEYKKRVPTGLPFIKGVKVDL

Compound: CC(C)=CCC/C(C)=C/CC/C(C)=C/CSC[C@H](Nc1ccnc(NN)n1)C(=O)O [Compound I]
- inhibition in vivo at 0.2 mg [1]: 24.7 ± 16.5%
- inhibition in vivo at 0.2 mg [2]: 23.1 ± 6.79%

Compound: CC(C)=CCC/C(C)=C/CC/C(C)=C/CSC[C@H](NC(=O)N1CCCCC1)C(=O)O [Compound D]
- inhibition in vivo at 0.8 mg [1]: 32.6%
- inhibition in vivo at 0.8 mg [2]: 83.7%

Compound: CC(C)=CCC/C(C)=C/CC/C(C)=C/CSC[C@H](NC(=O)Nc1ccccc1)C(=O)O [Compound E]
- inhibition in vivo at 0.8 mg [1]: 18.2%
- inhibition in vivo at 0.8 mg [2]: 75.4%

Compound: CC(C)=CCC/C(C)=C/CC/C(C)=C/CSC[C@H](NC(=O)N1CCNC1=O)C(=O)O [Compound G]
- inhibition in vivo at 0.8 mg [1]: 13.4%
- inhibition in vivo at 0.8 mg [2]: 58%

Compound: CNC(=S)N[C@@H](CSC/C=C(\C)CC/C=C(\C)CCC=C(C)C)C(=O)O [Compound A]
- inhibition in vivo at 0.2 mg [1]: 8.55 ± 3.7%
- inhibition in vivo at 0.2 mg [2]: 8.8 ± 6.29%

Compound: CC(C)=CCC/C(C)=C/CC/C(C)=C/CSC[C@H](Nc1ncccn1)C(=O)O [Compound J]
- inhibition in vivo at 0.2 mg [1]: 1.89 ± 7.75%

Compound: CC(C)=CCC/C(C)=C/CC/C(C)=C/CSC[C@H](Nc1ccnc(N)n1)C(=O)O [Compound H]
- inhibition in vivo at 0.2 mg [1]: 39.7 ± 1.67%
- inhibition in vivo at 0.8 mg [1]: 50.1%
- inhibition in vivo at 0.2 mg [2]: 63.5 ± 7.03%
- inhibition in vivo at 0.8 mg [2]: 89%

Compound: CC(C)=CCC/C(C)=C/CC/C(C)=C/CSC[C@H](NC(=O)N(c1ccccc1)c1ccccc1)C(=O)O [Compound F]
- inhibition in vivo at 0.8 mg [1]: 4.66%
- inhibition in vivo at 0.8 mg [2]: 79.5%

Compound: CC/N=C(\NCC)N[C@@H](CSC/C=C(\C)CC/C=C(\C)CCC=C(C)C)C(=O)O [Compound B]
- % Inhibition Erythema [3]: 0.51 ± 10.81 — %

Compound: CC(=O)N[C@@H](CSC/C=C(\C)CC/C=C(\C)CCC=C(C)C)C(=O)O [AFC, N-acetyl-S-farnesyl-L-cysteine]
- inhibition of isoprenyl-S-cysteinyl methyltransferase (mode) [4]: competitive inhibitor
- effect on dermal inflammation [5]: effectively reduces dermal inflammation

Compound: CC(C)=CCC/C(C)=C/CC/C(C)=C/CSC[C@H](NC(=O)N1CCOCC1)C(=O)O [Compound C]
- inhibition in vivo at 0.8 mg [1]: 34.1%
- inhibition in vivo at 0.8 mg [2]: 61.8%
